# Read-outs that look alike come from different tables or passages of the source.
# Experiments:
# [1] = target: CDK14/Cyclin Y (Homo sapiens, UniProt O94921); test: NanoBRET live-cell target engagement, CDK14-NanoLuc/Cyclin Y in HEK-293; type: binding; settings: CDK14/Y; for IC50: read-out: IC50; for inhibition at 10 µM: read-out: Inhibition at 10µM (%)
# [2] = target: CDK18/Cyclin Y (Homo sapiens, UniProt Q07002); test: NanoBRET live-cell target engagement, CDK18-NanoLuc/Cyclin Y in HEK-293; type: binding; settings: CDK18/Y; for IC50: read-out: IC50; for inhibition at 10 µM: read-out: Inhibition at 10µM (%)
# [3] = target: CDK8/Cyclin C (Homo sapiens, UniProt P49336); test: NanoBRET live-cell target engagement, NanoLuc-CDK8/Cyclin C in HEK-293; type: binding; settings: CDK8/C, read-out: Inhibition at 10µM (%)
# Sequence of CDK8/Cyclin C (P49336 whole entry): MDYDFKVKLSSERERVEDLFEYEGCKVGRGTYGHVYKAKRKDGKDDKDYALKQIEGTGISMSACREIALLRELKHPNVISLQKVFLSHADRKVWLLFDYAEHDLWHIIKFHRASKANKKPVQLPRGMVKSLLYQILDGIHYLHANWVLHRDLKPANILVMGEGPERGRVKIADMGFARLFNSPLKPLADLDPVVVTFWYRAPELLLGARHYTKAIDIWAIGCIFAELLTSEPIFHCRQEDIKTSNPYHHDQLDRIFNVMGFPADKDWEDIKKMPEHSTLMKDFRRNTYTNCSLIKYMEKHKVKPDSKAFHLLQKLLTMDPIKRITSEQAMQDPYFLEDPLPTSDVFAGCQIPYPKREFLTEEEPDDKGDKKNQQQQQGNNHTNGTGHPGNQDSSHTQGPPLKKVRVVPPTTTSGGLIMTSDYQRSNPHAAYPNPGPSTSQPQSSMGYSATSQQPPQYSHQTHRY
# Sequence of CDK8/Cyclin C (P24863 whole entry partner): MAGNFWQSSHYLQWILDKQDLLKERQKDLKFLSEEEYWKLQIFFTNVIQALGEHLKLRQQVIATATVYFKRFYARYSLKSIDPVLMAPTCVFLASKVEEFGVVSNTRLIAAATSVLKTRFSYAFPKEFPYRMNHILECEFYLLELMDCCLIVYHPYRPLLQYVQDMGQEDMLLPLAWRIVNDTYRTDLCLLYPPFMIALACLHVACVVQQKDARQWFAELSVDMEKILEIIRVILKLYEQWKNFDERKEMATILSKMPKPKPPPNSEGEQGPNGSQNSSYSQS
# [4] = target: CDK12/Cyclin K (Homo sapiens, UniProt Q9NYV4); test: NanoBRET live-cell target engagement, CDK12-NanoLuc/Cyclin K in HEK-293; type: binding; settings: CDK12/K, read-out: Inhibition at 10µM (%)
# [5] = target: CDK16/Cyclin Y (Homo sapiens, UniProt Q00536); test: NanoBRET live-cell target engagement, CDK16-NanoLuc/Cyclin Y in HEK-293; type: binding; settings: CDK16/Y; for IC50: read-out: IC50; for inhibition at 10 µM: read-out: Inhibition at 10µM (%)
# Sequence of CDK16/Cyclin Y (Q00536 whole entry): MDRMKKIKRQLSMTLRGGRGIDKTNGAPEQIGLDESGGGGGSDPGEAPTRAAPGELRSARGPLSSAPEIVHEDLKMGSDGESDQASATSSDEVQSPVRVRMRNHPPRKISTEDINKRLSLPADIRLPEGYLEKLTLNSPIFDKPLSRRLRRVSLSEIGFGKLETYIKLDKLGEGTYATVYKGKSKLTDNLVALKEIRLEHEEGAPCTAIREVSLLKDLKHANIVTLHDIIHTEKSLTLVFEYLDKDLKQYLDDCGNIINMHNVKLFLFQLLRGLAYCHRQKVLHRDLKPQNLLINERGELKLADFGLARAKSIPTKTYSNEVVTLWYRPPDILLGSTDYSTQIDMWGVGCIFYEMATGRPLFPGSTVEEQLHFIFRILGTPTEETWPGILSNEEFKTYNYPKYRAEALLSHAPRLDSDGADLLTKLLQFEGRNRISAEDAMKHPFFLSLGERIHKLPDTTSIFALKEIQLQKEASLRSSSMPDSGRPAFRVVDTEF
# Sequence of CDK16/Cyclin Y (Q8ND76 whole entry partner): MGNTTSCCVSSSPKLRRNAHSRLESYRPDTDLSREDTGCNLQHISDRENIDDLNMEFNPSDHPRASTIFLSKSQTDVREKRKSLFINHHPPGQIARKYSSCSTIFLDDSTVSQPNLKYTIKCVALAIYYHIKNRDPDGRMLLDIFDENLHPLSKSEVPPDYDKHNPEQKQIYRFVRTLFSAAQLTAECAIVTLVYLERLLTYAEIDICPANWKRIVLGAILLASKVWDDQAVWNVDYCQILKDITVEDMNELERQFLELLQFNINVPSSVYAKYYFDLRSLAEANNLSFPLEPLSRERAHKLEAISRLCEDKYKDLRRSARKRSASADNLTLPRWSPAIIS
# [6] = target: CDK2/Cyclin E1 (Homo sapiens, UniProt P24941); test: NanoBRET live-cell target engagement, CDK2-NanoLuc/Cyclin E1 in HEK-293; type: binding; settings: CDK2/E1, read-out: Inhibition at 10µM (%)
# [7] = target: CDK20/Cyclin H (Homo sapiens, UniProt Q8IZL9); test: NanoBRET live-cell target engagement, NanoLuc-CDK20/Cyclin H in HEK-293; type: binding; settings: CDK20/H, read-out: Inhibition at 10µM (%)
# [8] = target: CDK15/Cyclin Y (Homo sapiens, UniProt Q96Q40); test: NanoBRET live-cell target engagement, NanoLuc-CDK15/Cyclin Y in HEK-293; type: binding; settings: CDK15/Y, read-out: Inhibition at 10µM (%)
# [9] = target: CDK7 (Homo sapiens, UniProt P50613); test: NanoBRET live-cell target engagement, NanoLuc-CDK7 in HEK-293; type: binding; settings: CDK7; for IC50: read-out: IC50; for inhibition at 10 µM: read-out: Inhibition at 10µM (%)
# Sequence of CDK7 (P50613 whole entry): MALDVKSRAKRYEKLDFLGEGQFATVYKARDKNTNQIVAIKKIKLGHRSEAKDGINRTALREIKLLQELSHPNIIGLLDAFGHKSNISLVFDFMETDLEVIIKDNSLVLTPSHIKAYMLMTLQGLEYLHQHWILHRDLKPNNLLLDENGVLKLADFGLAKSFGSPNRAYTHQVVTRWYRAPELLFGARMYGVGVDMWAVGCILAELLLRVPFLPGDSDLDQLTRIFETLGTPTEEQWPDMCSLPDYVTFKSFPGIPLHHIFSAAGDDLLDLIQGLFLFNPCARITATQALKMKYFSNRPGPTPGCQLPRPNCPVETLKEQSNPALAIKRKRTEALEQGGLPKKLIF
# [10] = target: CDK13/Cyclin K (Homo sapiens, UniProt Q14004); test: NanoBRET live-cell target engagement, CDK13-NanoLuc/Cyclin K in HEK-293; type: binding; settings: CDK13/K, read-out: Inhibition at 10µM (%)
# [11] = target: CDK1/Cyclin E1 (Homo sapiens, UniProt P06493); test: NanoBRET live-cell target engagement, CDK1-NanoLuc/Cyclin E1 in HEK-293; type: binding; settings: CDK1/E1, read-out: Inhibition at 10µM (%)
# Sequence of CDK1/Cyclin E1 (P06493 whole entry): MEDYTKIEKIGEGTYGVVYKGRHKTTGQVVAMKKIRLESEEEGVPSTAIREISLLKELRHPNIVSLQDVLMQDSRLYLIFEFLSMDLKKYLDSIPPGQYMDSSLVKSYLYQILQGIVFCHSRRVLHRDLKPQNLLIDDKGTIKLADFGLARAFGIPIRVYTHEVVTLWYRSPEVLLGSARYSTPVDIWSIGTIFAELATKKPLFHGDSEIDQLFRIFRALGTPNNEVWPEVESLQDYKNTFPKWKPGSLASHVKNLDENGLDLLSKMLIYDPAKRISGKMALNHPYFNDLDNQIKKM
# Sequence of CDK1/Cyclin E1 (P24864 whole entry partner): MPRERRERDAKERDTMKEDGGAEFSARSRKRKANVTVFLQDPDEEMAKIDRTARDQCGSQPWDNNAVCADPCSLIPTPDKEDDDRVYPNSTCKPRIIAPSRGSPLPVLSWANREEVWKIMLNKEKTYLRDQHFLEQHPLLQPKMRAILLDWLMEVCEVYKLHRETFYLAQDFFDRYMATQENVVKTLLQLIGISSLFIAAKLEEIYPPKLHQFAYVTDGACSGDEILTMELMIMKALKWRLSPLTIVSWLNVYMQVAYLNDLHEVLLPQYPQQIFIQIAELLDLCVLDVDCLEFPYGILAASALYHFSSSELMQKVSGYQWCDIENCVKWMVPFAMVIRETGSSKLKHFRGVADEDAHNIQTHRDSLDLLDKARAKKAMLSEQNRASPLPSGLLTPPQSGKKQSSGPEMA
# [12] = target: CDK10/Cyclin L2 (Homo sapiens, UniProt Q15131); test: NanoBRET live-cell target engagement, CDK10-NanoLuc/Cyclin L2 in HEK-293; settings: read-out: Inhibition at 10µM (%), CDK10/L2
# Sequence of CDK10/Cyclin L2 (Q15131 whole entry): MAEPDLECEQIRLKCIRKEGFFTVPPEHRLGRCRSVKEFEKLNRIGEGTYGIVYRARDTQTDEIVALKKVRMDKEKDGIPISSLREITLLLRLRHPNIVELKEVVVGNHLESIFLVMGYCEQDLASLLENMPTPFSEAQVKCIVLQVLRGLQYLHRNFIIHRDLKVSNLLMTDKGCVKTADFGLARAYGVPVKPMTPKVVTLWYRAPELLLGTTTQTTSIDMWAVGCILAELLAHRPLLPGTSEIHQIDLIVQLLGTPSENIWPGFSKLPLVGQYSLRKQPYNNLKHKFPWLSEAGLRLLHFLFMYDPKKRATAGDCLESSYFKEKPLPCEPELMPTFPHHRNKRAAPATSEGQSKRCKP
# [13] = target: CDK3/Cyclin E1 (Homo sapiens, UniProt Q00526); test: NanoBRET live-cell target engagement, CDK3-NanoLuc/Cyclin E1 in HEK-293; type: binding; settings: CDK3/E1, read-out: Inhibition at 10µM (%)
# Sequence of CDK3/Cyclin E1 (Q00526 whole entry): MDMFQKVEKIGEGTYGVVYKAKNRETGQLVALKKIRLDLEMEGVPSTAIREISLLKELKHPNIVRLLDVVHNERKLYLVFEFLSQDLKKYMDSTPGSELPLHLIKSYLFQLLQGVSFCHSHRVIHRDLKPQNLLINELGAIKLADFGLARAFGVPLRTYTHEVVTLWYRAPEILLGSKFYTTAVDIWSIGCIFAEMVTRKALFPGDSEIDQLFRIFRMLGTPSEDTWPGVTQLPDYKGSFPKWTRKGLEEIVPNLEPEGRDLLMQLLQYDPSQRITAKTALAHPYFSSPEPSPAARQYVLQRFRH
# Sequence of CDK3/Cyclin E1 (P24864 whole entry partner): as the sequence (P24864 whole entry partner) above
# [14] = target: CDK11B/Cyclin L2 (Homo sapiens, UniProt P21127); test: NanoBRET live-cell target engagement, CDK11B-NanoLuc/Cyclin L2 in HEK-293; type: binding; settings: CDK11b/L2, read-out: Inhibition at 10µM (%)
# [15] = target: CDK17/Cyclin Y (Homo sapiens, UniProt Q00537); test: NanoBRET live-cell target engagement, CDK17-NanoLuc/Cyclin Y in HEK-293; type: binding; settings: CDK17/Y; for IC50: read-out: IC50; for inhibition at 10 µM: read-out: Inhibition at 10µM (%)
# Sequence of CDK17/Cyclin Y (Q00537 whole entry): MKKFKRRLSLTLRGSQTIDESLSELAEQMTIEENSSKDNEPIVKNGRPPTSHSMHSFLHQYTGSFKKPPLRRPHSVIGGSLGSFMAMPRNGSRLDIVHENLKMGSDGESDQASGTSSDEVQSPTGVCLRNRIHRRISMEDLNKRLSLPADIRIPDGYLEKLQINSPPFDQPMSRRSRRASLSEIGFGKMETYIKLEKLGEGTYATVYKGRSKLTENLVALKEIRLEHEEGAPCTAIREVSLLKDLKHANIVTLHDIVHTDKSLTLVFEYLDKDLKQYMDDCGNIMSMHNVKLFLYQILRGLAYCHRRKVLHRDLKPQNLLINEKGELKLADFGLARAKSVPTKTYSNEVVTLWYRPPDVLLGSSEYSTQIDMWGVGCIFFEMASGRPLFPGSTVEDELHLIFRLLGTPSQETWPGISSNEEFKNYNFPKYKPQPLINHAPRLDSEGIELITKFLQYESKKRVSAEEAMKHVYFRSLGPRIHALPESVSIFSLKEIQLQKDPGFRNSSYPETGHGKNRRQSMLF
# Sequence of CDK17/Cyclin Y (Q8ND76 whole entry partner): as the sequence (Q8ND76 whole entry partner) above
# [16] = target: CDK5/CDK5R1 (Homo sapiens, UniProt Q00535); test: NanoBRET live-cell target engagement, CDK5-NanoLuc/CDK5R1 in HEK-293; type: binding; settings: CDK5/CDK5R1, read-out: Inhibition at 10µM (%)
# [17] = target: CDK4/Cyclin D1 (Homo sapiens, UniProt P11802); test: NanoBRET live-cell target engagement, NanoLuc-CDK4/Cyclin D1 in HEK-293; type: binding; settings: CDK4/D1; for IC50: read-out: IC50; for inhibition at 10 µM: read-out: Inhibition at 10µM (%)
# [18] = target: CDK19/Cyclin C (Homo sapiens, UniProt Q9BWU1); test: NanoBRET live-cell target engagement, NanoLuc-CDK19/Cyclin C in HEK-293; settings: read-out: Inhibition at 10µM (%), CDK19/C
# [19] = target: CDK6/Cyclin D1 (Homo sapiens, UniProt Q00534); test: NanoBRET live-cell target engagement, NanoLuc-CDK6/Cyclin D1 in HEK-293; type: binding; settings: CDK6/D1; for IC50: read-out: IC50; for inhibition at 10 µM: read-out: Inhibition at 10µM (%)
# [20] = target: CDK9/Cyclin K (Homo sapiens, UniProt P50750); test: NanoBRET live-cell target engagement, NanoLuc-CDK9/Cyclin K in HEK-293; type: binding; settings: CDK9/K, read-out: Inhibition at 10µM (%)
# Sequence of CDK9/Cyclin K (P50750 whole entry): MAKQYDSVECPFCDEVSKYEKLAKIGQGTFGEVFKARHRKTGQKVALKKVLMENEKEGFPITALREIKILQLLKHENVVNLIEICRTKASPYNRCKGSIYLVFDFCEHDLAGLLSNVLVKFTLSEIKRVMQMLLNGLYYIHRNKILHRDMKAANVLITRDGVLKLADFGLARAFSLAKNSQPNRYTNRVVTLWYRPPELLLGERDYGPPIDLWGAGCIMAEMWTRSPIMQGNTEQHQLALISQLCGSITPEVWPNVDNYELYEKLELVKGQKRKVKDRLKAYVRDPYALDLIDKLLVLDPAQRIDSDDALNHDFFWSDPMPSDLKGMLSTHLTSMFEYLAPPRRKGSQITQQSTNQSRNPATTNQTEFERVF
# Sequence of CDK9/Cyclin K (O75909 whole entry partner): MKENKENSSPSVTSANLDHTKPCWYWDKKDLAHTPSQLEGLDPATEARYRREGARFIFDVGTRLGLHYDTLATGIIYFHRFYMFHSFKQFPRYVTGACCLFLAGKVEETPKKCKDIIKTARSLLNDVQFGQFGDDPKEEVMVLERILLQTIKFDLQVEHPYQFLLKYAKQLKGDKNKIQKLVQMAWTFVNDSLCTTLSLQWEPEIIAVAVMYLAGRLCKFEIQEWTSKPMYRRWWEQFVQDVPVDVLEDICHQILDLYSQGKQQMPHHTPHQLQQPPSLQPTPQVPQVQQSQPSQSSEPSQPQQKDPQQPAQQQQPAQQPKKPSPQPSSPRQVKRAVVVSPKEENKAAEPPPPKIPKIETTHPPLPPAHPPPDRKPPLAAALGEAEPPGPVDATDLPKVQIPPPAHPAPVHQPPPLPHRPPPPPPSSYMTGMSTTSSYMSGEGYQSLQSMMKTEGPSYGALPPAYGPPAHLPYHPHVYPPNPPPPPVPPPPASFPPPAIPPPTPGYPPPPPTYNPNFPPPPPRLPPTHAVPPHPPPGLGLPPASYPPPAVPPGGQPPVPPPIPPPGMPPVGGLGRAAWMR
smiles,measurement,setting,value
CN1CCN(c2ccc(Nc3ncc4cc(C#N)c(=O)n(C5CCCC5)c4n3)cc2)CC1 [ON123300],IC50,[1]; average (± SEM where n=3),0.12 ± 0.06 µM
same,inhibition at 10 µM,[1]; average,45.4%
same,IC50,[1]; experiment 1,0.034 µM
same,inhibition at 10 µM,[1]; experiment 1,56.3%
same,IC50,[1]; experiment 2,0.22 µM
same,inhibition at 10 µM,[1]; experiment 2,34.4%
same,IC50,[1]; experiment 3,0.099 µM
same,IC50,[2]; average (± SEM where n=3),0.24 ± 0.05 µM
same,inhibition at 10 µM,[2]; average,38.8%
same,IC50,[2]; experiment 1,0.283 µM
same,inhibition at 10 µM,[2]; experiment 1,27.5%
same,IC50,[2]; experiment 2,0.3 µM
same,inhibition at 10 µM,[2]; experiment 2,50%
same,IC50,[2]; experiment 3,0.15 µM
same,inhibition at 10 µM,[3]; average,8.5%
same,inhibition at 10 µM,[3]; experiment 1,6.2%
same,inhibition at 10 µM,[3]; experiment 2,10.8%
same,inhibition at 10 µM,[4]; average,-3.9%
same,inhibition at 10 µM,[4]; experiment 1,-2.7%
same,inhibition at 10 µM,[4]; experiment 2,-5%
same,IC50,[5]; average (± SEM where n=3),0.039 ± 0.008 µM
same,IC50,[5]; experiment 1,0.023 µM
same,inhibition at 10 µM,[5]; experiment 1,70.3%
same,IC50,[5]; experiment 2,0.047 µM
same,inhibition at 10 µM,[5]; experiment 2,78.8%
same,IC50,[5]; experiment 3,0.048 µM
same,inhibition at 10 µM,[6]; average,12.6%
same,inhibition at 10 µM,[6]; experiment 1,14.4%
same,inhibition at 10 µM,[6]; experiment 2,10.7%
same,inhibition at 10 µM,[7]; experiment 1,23.1%
same,inhibition at 10 µM,[7]; experiment 2,26.8%
same,inhibition at 10 µM,[8]; average,29.2%
same,inhibition at 10 µM,[8]; experiment 1,36%
same,inhibition at 10 µM,[8]; experiment 2,22.5%
same,IC50,[9]; average (± SEM where n=3),0.143 ± 0.004 µM
same,inhibition at 10 µM,[9]; average,28.4%
same,IC50,[9]; experiment 1,0.14 µM
same,inhibition at 10 µM,[9]; experiment 1,28.2%
same,IC50,[9]; experiment 2,0.15 µM
same,inhibition at 10 µM,[9]; experiment 2,28.5%
same,IC50,[9]; experiment 3,0.139 µM
same,inhibition at 10 µM,[10]; average,-15.1%
same,inhibition at 10 µM,[10]; experiment 1,-1%
same,inhibition at 10 µM,[10]; experiment 2,-29.2%
same,inhibition at 10 µM,[11]; average,18.6%
same,inhibition at 10 µM,[11]; experiment 1,20.1%
same,inhibition at 10 µM,[11]; experiment 2,17.1%
same,inhibition at 10 µM,[12]; average,4.6%
same,inhibition at 10 µM,[12]; experiment 1,8.8%
same,inhibition at 10 µM,[12]; experiment 2,0.3%
same,inhibition at 10 µM,[13]; average,24.7%
same,inhibition at 10 µM,[13]; experiment 1,10.5%
same,inhibition at 10 µM,[13]; experiment 2,38.9%
same,inhibition at 10 µM,[14]; average,36.8%
same,inhibition at 10 µM,[14]; experiment 1,11.7%
same,inhibition at 10 µM,[14]; experiment 2,61.9%
same,IC50,[15]; average (± SEM where n=3),0.04 ± 0.004 µM
same,inhibition at 10 µM,[15]; average,75.5%
same,IC50,[15]; experiment 1,0.032 µM
same,inhibition at 10 µM,[15]; experiment 1,72.1%
same,IC50,[15]; experiment 2,0.043 µM
same,inhibition at 10 µM,[15]; experiment 2,78.9%
same,IC50,[15]; experiment 3,0.044 µM
same,inhibition at 10 µM,[16]; average,4.3%
same,inhibition at 10 µM,[16]; experiment 1,8%
same,inhibition at 10 µM,[16]; experiment 2,0.554%
same,IC50,[17]; average (± SEM where n=3),0.009 ± 0.003 µM
same,inhibition at 10 µM,[17]; average,95.1%
same,IC50,[17]; experiment 1,0.0069 µM
same,inhibition at 10 µM,[17]; experiment 1,95.8%
same,IC50,[17]; experiment 2,0.005 µM
same,inhibition at 10 µM,[17]; experiment 2,94.3%
same,IC50,[17]; experiment 3,0.015 µM
same,inhibition at 10 µM,[18]; average,-0.3%
same,inhibition at 10 µM,[18]; experiment 1,6.6%
same,inhibition at 10 µM,[18]; experiment 2,-7.2%
same,IC50,[19]; average (± SEM where n=3),0.004 ± 0.001 µM
same,inhibition at 10 µM,[19]; average,97.7%
same,IC50,[19]; experiment 1,0.0048 µM
same,inhibition at 10 µM,[19]; experiment 1,96.9%
same,IC50,[19]; experiment 2,0.0034 µM
same,inhibition at 10 µM,[19]; experiment 2,98.5%
same,IC50,[19]; experiment 3,0.003 µM
same,inhibition at 10 µM,[20]; average,34.2%
same,inhibition at 10 µM,[20]; experiment 1,32%
same,inhibition at 10 µM,[20]; experiment 2,36.4%

# Reference: PMC7265341, “Quantifying CDK inhibitor selectivity in live cells” (Nature Communications, 2020)
